Ends that are not written are not given here. * marks the point of attachment. Palmitoyl = CCCCCCCCCCCCCCCC(=O)*

Here are results for 2 substances from publication PMC7810697, “Sarcolipin alters SERCA1a interdomain communication by impairing binding of both calcium and ATP” (Scientific Reports, 2021).

Assay [1] has as its system SERCA1a. The following applies: cited from earlier work. An excerpt: Effect on the turnover is less clear as it seems to highly depend on the system used for functional characterization. […] This post-translational modification is also present in pig SLN and presumably in a few other mammals and birds, as judged from the amino-acid sequences. Among the other hundred seq ...

The subject of assay [2] is SERCA1a. Conditions: cited from earlier work. An excerpt: Besides its various roles in protein signalling and addressing, palmitoylation can also regulate oligomerisation processes of membrane proteins. Recent work has shown that other P-type ATPases regulatory subunits like phospholamban (PLB) and phospholemman (PLM) are palmitoylated[16],[17]. Acylation of PLB and PLM is functionally relevant by having an impact on the oligomerisation of the peptides, their association with their dedicated pumps (Ca^2+-ATPase or Na+, K+-ATPase, respectively) and on their lifetime.
This is another data set of the same source.

The test system of assay [3] is recombinant purified SERCA1a (recS1a). The experiment in a line: Limited proteolysis with proteinase K (SDS-PAGE). The following applies: Ca2.E1 (1 mM calcium) and E2.Tg (EGTA + thapsigargin); recS1a:pSLN 1:10 mole:mole; 0.3 mg/mL proteinase K, 5-30 min, 20 °C. It counts as biochemical, rabbit (expressed in S. cerevisiae). As to the method: Yeast-expressed and purified SERCA1a (recS1a) was supplemented with SLN at a mole:mole ratio of 1:10 recS1a:SLN. In absence of SLN, recS1a was supplemented with 0.07 mg/mL C12E8, an amount that corresponds to the detergent brought with chemically synthesized SLN. After 30 min at 20 °C, samples were supplemented with either 1.1 mM EGTA (Ca^2+free ~ 1 mM), or 50 mM EGTA (Ca^2+free ~ 150 nM) and 0.01 mg/mL Tg. After an additional incubation for 10 min at 20 °C, proteolysis was achieved by addition of 0.3 mg/mL proteinase K. Proteolysis was stopped by addition of 1 mM PMSF and incubation on ice for 10 min. After proteolysis arrest, samples were diluted twice in a 4 M-urea containing denaturation buffer, boiled for 60 s, and about 0.75 µg protein were loaded on a 9% SDS-PAGE prepared in the presence of 1 mM Ca^2+[32]. After electrophoresis, gels were stained with Coomassie blue.

In assay [4] the target is T1, recombinant SERCA1a (recS1a) (Oryctolagus cuniculus, UniProt P04191).
T1 construct: BAD (biotin acceptor domain) (C, cleaved yes); made in house; host or cells: Saccharomyces cerevisiae
T1 sequence (P04191 1-994 isoform P04191-2): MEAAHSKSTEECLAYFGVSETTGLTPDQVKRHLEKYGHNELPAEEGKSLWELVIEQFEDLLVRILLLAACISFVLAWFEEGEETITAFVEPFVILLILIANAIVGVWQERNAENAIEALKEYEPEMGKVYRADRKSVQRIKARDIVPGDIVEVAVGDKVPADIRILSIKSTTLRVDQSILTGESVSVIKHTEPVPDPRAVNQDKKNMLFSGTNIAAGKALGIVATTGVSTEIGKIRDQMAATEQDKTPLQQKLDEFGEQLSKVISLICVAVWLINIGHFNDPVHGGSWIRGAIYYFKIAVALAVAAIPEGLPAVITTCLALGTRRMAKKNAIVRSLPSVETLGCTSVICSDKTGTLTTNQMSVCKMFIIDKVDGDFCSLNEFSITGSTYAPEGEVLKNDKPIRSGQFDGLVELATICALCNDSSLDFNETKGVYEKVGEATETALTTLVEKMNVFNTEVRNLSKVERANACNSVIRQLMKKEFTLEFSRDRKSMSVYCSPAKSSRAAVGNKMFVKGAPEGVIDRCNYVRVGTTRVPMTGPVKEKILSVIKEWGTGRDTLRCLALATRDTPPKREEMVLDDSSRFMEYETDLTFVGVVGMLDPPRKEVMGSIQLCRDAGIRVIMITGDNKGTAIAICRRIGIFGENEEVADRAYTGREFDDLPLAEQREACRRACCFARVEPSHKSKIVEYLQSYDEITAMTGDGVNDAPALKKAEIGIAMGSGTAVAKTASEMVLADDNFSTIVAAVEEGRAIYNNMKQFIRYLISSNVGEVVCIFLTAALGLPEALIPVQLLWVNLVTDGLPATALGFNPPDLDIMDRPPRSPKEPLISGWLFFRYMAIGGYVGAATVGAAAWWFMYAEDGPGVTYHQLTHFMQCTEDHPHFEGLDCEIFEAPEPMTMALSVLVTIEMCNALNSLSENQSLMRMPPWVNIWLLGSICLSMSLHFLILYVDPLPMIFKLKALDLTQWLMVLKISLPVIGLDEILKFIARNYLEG
The experiment in a line: Calcium binding at equilibrium by tryptophan fluorescence. Details: species or system rabbit (expressed in S. cerevisiae). The following applies: average of three independent experiments; for Ca1/2 (tryptophan fluorescence), recS1a + pSLN: at equilibrium, pH 7, 20 °C, DDM, 20% glycerol, p=0.200 vs recS1a alone. As for the experimental part: Intrinsic fluorescence of SERCA1a was measured with a SPEX Fluorolog spectrofluorometer (Horiba/Jobin–Yvon, Longjumeau, France) as described before. Briefly, signals were monitored with excitation and emission wavelength set at 295 and 320 nm, with bandwidths of 2 and 10 nm, respectively. Changes in tryptophan fluorescence were recorded at 20 °C after dilution of protein samples to a final concentration of about 6–7.5 µg/mL into a medium containing 50 mM MOPS-Tris pH 7, 100 mM KCl, 5 mM MgCl2, 20% glycerol (v/v) and 10 mg/mL DDM. In presence of SLN, recS1a and SLN were first mixed together and incubate for 1 h on ice before measurement. In absence of SLN, recS1a is supplemented with 0.07 mg/mL C12E8 to compensate the detergent present with SLN. The Maxchelator program was used for estimating [Ca^2+]free[59] (program available at https://somapp.ucdmc.ucdavis.edu/pharmacology/bers/maxchelator/downloads.htm). The dissociation constant of the Ca.EGTA complex was taken to be 0.4 µM at pH7 and was assumed to be the same in the presence of glycerol.

With “SLN: chemically synthesized non-palmitoylated rabbit sarcolipin; in cited literature results sarcolipin in general (MERSTRELCLNFTVVLITVILIWLLVRSYQY; UniProt P42532 1-31, looked up)”, the “apparent affinity for calcium in presence of SLN” value with SERCA1a [1] (0.35 µM in absence of SLN) is listed as 0.51 µM. In the assay with SERCA1a [1] (% of Vmax measured in absence of SLN, ref 13 and Supplementary Table 1), the “Vmax in presence of SLN, increase reported by some authors” value is reported as “up to 140%”. Moreover, the “effect of phosphorylation of SLN:Thr5 on SERCA1a inhibition” value with SERCA1a [2] is on record as “loss of inhibition of SERCA1a”.

Turning to “pSLN: chemically synthesized S-palmitoylated rabbit sarcolipin, 31-residue single-spanning membrane peptide, palmitoylated on Cys9 (MERSTRELC(Palmitoyl)LNFTVVLITVILIWLLVRSYQY; UniProt P42532 1-31, looked up)”, in assay [3], the “effect on proteinase K proteolysis” value is given as “drastically slowed”. Moreover, in assay [4], the “Ca1/2 (tryptophan fluorescence), recS1a + pSLN” value was determined as 4.5 µM and the “nH for calcium (tryptophan fluorescence), recS1a + pSLN” value is recorded as 1.96+/-0.20. Besides, in assay [4] (listed as Palm-SLN), the “Ca1/2 (tryptophan fluorescence), recS1a + pSLN” value is recorded as 4.48 +/- 0.52 µM.
